Test results taken from PMC7875478 (Journal of veterinary pharmacology and therapeutics, 2020).
Read-outs that look alike come from different tables or passages of the source. Values belong to the compound of their own block, whether it stands above or below them.

How the values were obtained:
[1] = Phenylbutazone metabolism in equine liver microsomes; format: in vitro ADME; conditions: metabolite formation from PBZ
equine CYP3A97 [2] = test: Phenylbutazone metabolism to oxyphenbutazone by recombinant equine CYP3A97; format: in vitro ADME; conditions: oxyphenbutazone formation from PBZ
[3] = system: equine liver microsomal P450 forming gamma-hydroxy phenylbutazone; test: Cytochrome P450 inhibition assay with PBZ in equine liver microsomes; format: in vitro ADME; conditions: horse, equine liver microsomes, pH 7.4
recombinant CYP3A97 = test: Cytochrome P450 inhibition assay with PBZ and recombinant CYP3A97; conditions: recombinant CYP3A97, inhibitor 10 μM, PBZ 400 μM
equine CYP1A1 = conditions: 5-OH flunixin formation
[4] = Flunixin meglumine metabolism to 5-OH flunixin in equine liver microsomes; format: in vitro ADME; conditions: for Vmax (or Vmax1) / Ki: 5-OH flunixin formation; for Ki: substrate inhibition model
equine CYP3A97 [5] = system: equine CYP3A97
equine CYP3A93 = conditions: 5-OH flunixin formation
CYP2C92 = test: Incubation of FM with recombinant equine CYP2C92; format: in vitro ADME
[6] = Cytochrome P450 inhibition assay with PBZ in equine liver microsomes; format: in vitro ADME; conditions: inhibitor 10 μM, PBZ 400 μM
[7] = read-out: Km (or Km1), 5-OH flunixin formation

Km (equine CYP1A1; read-out: Km (or Km1), CYP1A1, high-affinity phase): 495 µM
Km (equine CYP3A94; [7]): 828 µM
Km ([4]; read-out: Km (or Km1), 5-OH flunixin formation, horse 1): 22.6 µM
Km ([4]; read-out: Km (or Km1), 5-OH flunixin formation, horse 2): 13.1 µM
Ki ([4]; horse 1): 710 µM
Ki ([4]; horse 2): 1190 µM
Km (equine CYP3A95; [7]): 928 µM
Km (equine CYP3A97 [5]; [7]): 4.07 µM
Km (equine CYP3A93; read-out: Km (or Km1), CYP3A93, high-affinity phase): 37.6 µM
Structure (SMILES): Cc1c(Nc2ncc(O)cc2C(=O)O)cccc1C(F)(F)F [5-OH flunixin, 5-hydroxy-flunixin]
Best fit model (equine CYP1A1; CYP1A1): Biphasic
Vmax (or Vmax1) (equine CYP1A1; CYP1A1, high-affinity phase): 1.39 pmol/min/pmol P450
Vmax2 (equine CYP1A1; CYP1A1, low-affinity phase): 0.665 pmol/min/pmol P450
Km2 (equine CYP1A1; CYP1A1, second phase): 546.6 µM
Best fit model (equine CYP3A94; 5-OH flunixin formation): Michaelis-Menten
Vmax (or Vmax1) (equine CYP3A94; 5-OH flunixin formation): 1.39 pmol/min/pmol P450
Best fit model ([4]; 5-OH flunixin formation from FM): Substrate Inhibition
Vmax (or Vmax1) ([4]; horse 1): 0.613 pmol/min/pmol P450
Vmax (or Vmax1) ([4]; horse 2): 0.803 pmol/min/pmol P450
Best fit model (equine CYP3A95; 5-OH flunixin formation): Michaelis-Menten
Vmax (or Vmax1) (equine CYP3A95; 5-OH flunixin formation): 0.675 pmol/min/pmol P450
Best fit model (equine CYP3A97 [5]; 5-OH flunixin formation): Michaelis-Menten
Vmax (or Vmax1) (equine CYP3A97 [5]; 5-OH flunixin formation): 0.450 pmol/min/pmol P450
Best fit model (equine CYP3A93; CYP3A93): Biphasic
Vmax (or Vmax1) (equine CYP3A93; CYP3A93, high-affinity phase): 0.148 pmol/min/pmol P450
Vmax2 (equine CYP3A93; CYP3A93, low-affinity phase): 2.32 pmol/min/pmol P450
Km2 (equine CYP3A93; CYP3A93, second phase): 1539.8 µM

Km ([1]; horse 1): 29.2 µM
Km ([1]; horse 2): 79.3 µM
Structure (SMILES): CC(O)CCC1C(=O)N(c2ccccc2)N(c2ccccc2)C1=O (stereo not shown) [Gamma-hydroxy phenylbutazone, gamma-hydroxy phenylbutazone]
Best fit model [1]: Michaelis-Menten
Vmax ([1]; horse 1): 1.56 pmol/min/pmol P450
Vmax ([1]; horse 2): 0.218 pmol/min/pmol P450

Oxyphenbutazone production decreased in microsomal incubations [6]: 53%
Structure (SMILES): CC(C)(O)c1ccccc1CC[C@@H](SCC1(CC(=O)O)CC1)c1cccc(/C=C/c2ccc3ccc(Cl)cc3n2)c1 [montelukast]

Further lines, the compound ahead of its results:

Structure (SMILES): CCCCC1C(=O)N(c2ccccc2)N(c2ccc(O)cc2)C1=O (stereo not shown) [Oxyphenbutazone, oxyphenbutazone]
Best fit model [1]: Michaelis-Menten
Vmax ([1]; horse 1): 1.72 pmol/min/pmol P450
Vmax ([1]; horse 2): 0.279 pmol/min/pmol P450
Best fit model (equine CYP3A97 [2]): Michaelis-Menten
Vmax (equine CYP3A97 [2]): 2.66 pmol/min/pmol P450

Structure (SMILES): O=c1cc(-c2ccccc2)oc2c1ccc1ccccc12 [alpha-naphthoflavone]
inhibition at 30 min, 10 μM [3]: 79%
Increased production of oxyphenbutazone compared to control (recombinant CYP3A97): 150%

Structure (SMILES): Cc1c(Nc2ncccc2C(=O)O)cccc1C(F)(F)F [FM, flunixin meglumine]
Generation of metabolites by CYP2C92 (CYP2C92): did not generate any measurable metabolites
